Results published in patent publication US20070128217A1 (priority 2003, published 2007).

Assays:
[1] = test system: antibodies in sera from SARS patients (sera 1a, 1b, 2, 6, 37, 62, London, SARS-yellow, SARS-green); assay type: binding, human; design: Binding of serum 6 to linear peptides of protein X1 of SARS-CoV Urbani / Binding of serum 37 to linear peptides of protein X1 of SARS-CoV Urbani / Binding of serum 6 to looped/cyclic peptide (PEPSCAN-ELISA) / Binding of serum 37 to looped/cyclic peptide (PEPSCAN-ELISA) / Binding of serum 37 to looped/cyclic peptides of protein X1 of SARS-CoV Urbani / Binding of serum 6 to linear peptides of protein X2 / Binding of serum 37 to linear peptides of protein X2 / Binding of serum 37 to looped/cyclic peptides of protein X2 of SARS-CoV Urbani / Binding of serum 6 to linear peptides of protein M of SARS-CoV Urbani / Binding of serum 37 to linear peptides of protein M of SARS-CoV Urbani / Binding of serum 6 to looped/cyclic peptides of protein M of SARS-CoV Urbani / Binding of serum 37 to looped/cyclic peptides of protein M of SARS-CoV Urbani / Binding of serum 6 to linear peptides of protein X3 of SARS-CoV Urbani / Binding of serum 37 to linear peptides of protein X3 of SARS-CoV Urbani / Binding of serum 37 to looped/cyclic peptides of protein X3 of SARS-CoV Urbani / Binding of serum 6 to linear peptides of protein X4 of SARS-CoV Urbani / Binding of serum 37 to linear peptides of protein X4 of SARS-CoV Urbani / Binding of serum 37 to looped/cyclic peptides of protein X4 of SARS-CoV Urbani / Binding of serum 6 to linear peptides of protein X5 of SARS-CoV Urbani / Binding of serum 37 to linear peptides of protein X5 of SARS-CoV Urbani / Binding of serum 37 to looped/cyclic peptides of protein X5 of SARS-CoV Urbani / Binding of serum 6 to linear peptides of protein N of SARS-CoV Urbani / Binding of serum 37 to linear peptides of protein N of SARS-CoV Urbani / Binding of serum 6 to linear peptide (PEPSCAN-ELISA) / Binding of serum 1a to looped/cyclic peptides of protein N of SARS-CoV Urbani / Binding of serum 1b to looped/cyclic peptides of protein N of SARS-CoV Urbani / Binding of serum 2 to looped/cyclic peptides of protein N of SARS-CoV Urbani / Binding of serum 6 to looped/cyclic peptides of protein N of SARS-CoV Urbani / Binding of serum 37 to looped/cyclic peptides of protein N of SARS-CoV Urbani / Binding of serum 62 to looped/cyclic peptides of protein N of SARS-CoV Urbani / Binding of serum London to looped/cyclic peptides of protein N of SARS-CoV Urbani / Binding of serum SARS-green to looped/cyclic peptides of protein N of SARS-CoV Urbani: unit not given here
[2] = test system: control sera (pooled serum of ten healthy LUMC hospital workers; commercial negative donor pooled serum from the Dutch bloodbank); assay type: binding, human; design: Binding of Control serum LUMC to linear peptides / Binding of Control serum Blood-bank to linear peptides / Binding of Control serum LUMC to looped peptides / Binding of Control Serum Blood-Bank to Looped peptides / Binding of Control serum LUMC to linear peptides of the protein M of SARS-CoV Urbani / Binding of Control serum Blood-bank to linear peptides of the protein M of SARS-CoV Urbani / Binding of Control serum LUMC to looped peptides of the protein M of SARS-CoV Urbani / Binding of Control Serum Blood-Bank to Looped peptides of the protein M of SARS-CoV Urbani: unit not given here
[3] = test system: rabbit serum obtained by immunizing a rabbit with the SARS-CoV strain Frankfurt 1; assay type: binding; design: Binding of a rabbit serum to linear peptides / Binding of a rabbit serum to looped peptides / Rabbit serum linear peptides / Rabbit serum looped peptides / Binding of a rabbit serum to linear peptides of protein N of SARS-CoV Urbani (Rabbit serum linear peptides) / Binding of a rabbit serum to looped/cyclic peptides of protein N of SARS-CoV Urbani (Rabbit serum looped peptides): unit not given here
[4] = test system: recombinant human anti-SARS-CoV antibody 03-018; assay type: binding; design: Binding of antibody 03-018 to linear peptides of the N protein of SARS-CoV Urbani / Binding of antibody 03-018 to looped/cyclic peptides of the N protein of SARS-CoV Urbani: unit not given here

DYKHWPQIAQFAPSA
Binding of serum 1a to linear peptides of protein N of SARS-CoV Urbani [1]: 0.3 | Binding of serum 1a to looped/cyclic peptides of protein N of SARS-CoV Urbani [1]: 0.4 | Binding of serum 1b to linear peptides of protein N of SARS-CoV Urbani [1]: 0.2 | Binding of serum 1b to looped/cyclic peptides of protein N of SARS-CoV Urbani [1]: 0.3 | Binding of serum 2 to linear peptides of protein N of SARS-CoV Urbani [1]: 0.2 | Binding of serum 2 to looped/cyclic peptides of protein N of SARS-CoV Urbani [1]: 0.4 | Binding of serum 6 to linear peptides of protein N of SARS-CoV Urbani [1]: 0.2 | Binding of serum 6 to looped/cyclic peptides of protein N of SARS-CoV Urbani [1]: 0.2 | Binding of serum 37 to linear peptides of protein N of SARS-CoV Urbani [1]: 0.9 | Binding of serum 37 to looped/cyclic peptides of protein N of SARS-CoV Urbani [1]: 0.6 | Binding of serum 62 to linear peptides of protein N of SARS-CoV Urbani [1]: 0.9 | Binding of serum 62 to looped/cyclic peptides of protein N of SARS-CoV Urbani [1]: 0.6 | Binding of serum London to linear peptides of protein N of SARS-CoV Urbani [1]: 0.7 | Binding of serum London to looped/cyclic peptides of protein N of SARS-CoV Urbani [1]: 0.5 | Binding of serum SARS-green to linear peptides of protein N of SARS-CoV Urbani [1]: 0.4 | Binding of serum SARS-green to looped/cyclic peptides of protein N of SARS-CoV Urbani [1]: 0.2 | Binding of serum SARS-yellow to linear peptides of protein N of SARS-CoV Urbani [1]: 0.8 | Binding of serum SARS-yellow to looped/cyclic peptides of protein N of SARS-CoV Urbani [1]: 0.7 | Control Serum Blood-Bank Looped peptides [2]: 0.6 | Control serum Blood-bank linear peptides [2]: 0.9 | Control serum LUMC linear peptides [2]: 0.8 | Control serum LUMC looped peptides [2]: 0.7 | Binding of a rabbit serum to linear peptides of protein N of SARS-CoV Urbani (Rabbit serum linear peptides) [3]: 0.1 | Binding of a rabbit serum to looped/cyclic peptides of protein N of SARS-CoV Urbani (Rabbit serum looped peptides) [3]: 0.5 | Binding of antibody 03-018 to linear peptides of the N protein of SARS-CoV Urbani [4]: 0.1 | Binding of antibody 03-018 to looped/cyclic peptides of the N protein of SARS-CoV Urbani [4]: 0.2

EASKKPRQKRTATKQ
Binding of serum 1a to linear peptide (PEPSCAN-ELISA) [1]: 0.2 | Binding of serum 1a to looped/cyclic peptides of protein N of SARS-CoV Urbani [1]: 0.3 | Binding of serum 1b to linear peptide (PEPSCAN-ELISA) [1]: 0.1 | Binding of serum 1b to looped/cyclic peptides of protein N of SARS-CoV Urbani [1]: 0.2 | Binding of serum 2 to linear peptide (PEPSCAN-ELISA) [1]: 0.3 | Binding of serum 2 to looped/cyclic peptides of protein N of SARS-CoV Urbani [1]: 0.4 | Binding of serum 6 to linear peptide (PEPSCAN-ELISA) [1]: 0.3 | Binding of serum 6 to looped/cyclic peptides of protein N of SARS-CoV Urbani [1]: 0.3 | Binding of serum 37 to linear peptide (PEPSCAN-ELISA) [1]: 0.7 | Binding of serum 37 to looped/cyclic peptides of protein N of SARS-CoV Urbani [1]: 0.6 | Binding of serum 62 to linear peptide (PEPSCAN-ELISA) [1]: 0.7 | Binding of serum 62 to looped/cyclic peptides of protein N of SARS-CoV Urbani [1]: 0.5 | Binding of serum London to linear peptide (PEPSCAN-ELISA) [1]: 0.5 | Binding of serum London to looped/cyclic peptides of protein N of SARS-CoV Urbani [1]: 0.5 | Binding of serum SARS-green to linear peptide (PEPSCAN-ELISA) [1]: 0.3 | Binding of serum SARS-green to looped/cyclic peptides of protein N of SARS-CoV Urbani [1]: 0.3 | Binding of serum SARS-yellow to linear peptide (PEPSCAN-ELISA) [1]: 0.6 | Binding of serum SARS-yellow to looped/cyclic peptides of protein N of SARS-CoV Urbani [1]: 0.4 | Binding of Control Serum Blood-Bank to Looped peptides [2]: 0.8 | Binding of Control serum Blood-bank to linear peptides [2]: 0.9 | Binding of Control serum LUMC to linear peptides [2]: 0.8 | Binding of Control serum LUMC to looped peptides [2]: 0.6 | Binding of a rabbit serum to linear peptides of protein N of SARS-CoV Urbani (Rabbit serum linear peptides) [3]: 0.2 | Binding of a rabbit serum to looped/cyclic peptides of protein N of SARS-CoV Urbani (Rabbit serum looped peptides) [3]: 0.2 | Binding of antibody 03-018 to linear peptides of the N protein of SARS-CoV Urbani [4]: 0.1 | Binding of antibody 03-018 to looped/cyclic peptides of the N protein of SARS-CoV Urbani [4]: 0.3
